Data taken from patent publication US20160052936A1, “SPIROINDOLINE DERIVATIVES FOR USE AS GONADOTROPIN-RELEASING HORMONE RECEPTOR ANTAGONISTS” (BAYER PHARMA AKTIENGESELLSCHAFT, priority 2013, published 2016).

Target: T1, human GnRH receptor (Homo sapiens, UniProt P30968)
T1 construct: host or cells: CHO cells stably expressing human GnRH receptor (line established by Prof. Thomas Gudermann)
T1 sequence (P30968 1-328): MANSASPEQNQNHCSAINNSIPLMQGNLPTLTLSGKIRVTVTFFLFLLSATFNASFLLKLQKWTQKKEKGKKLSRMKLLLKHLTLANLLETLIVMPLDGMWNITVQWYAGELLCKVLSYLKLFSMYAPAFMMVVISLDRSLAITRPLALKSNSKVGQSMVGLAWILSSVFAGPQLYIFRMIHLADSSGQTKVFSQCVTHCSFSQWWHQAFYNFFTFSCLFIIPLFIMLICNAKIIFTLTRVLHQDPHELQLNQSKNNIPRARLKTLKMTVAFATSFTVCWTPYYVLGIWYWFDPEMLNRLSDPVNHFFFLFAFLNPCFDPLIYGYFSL
Assay: IP-One HTRF assay with buserelin stimulation
Assay type: cell-based
Details: CHO cells stably expressing human GnRH receptor; buserelin at EC80; read-out: Potency in IP-One HTRF assay with buserelin (at EC80) stimulation, given as IC50
Source text: By using homogenous time-resolved fluorescence resonance energy transfer (HTRF), the generation of one component of the GnRH-R signalling cascade can be measured. After stimulation of CHO cells stably expressing human GnRH receptor (established by Prof. Thomas Gudermann, currently University of Marburg, Germany; supplied as frozen cell aliquots by Cell Culture Services, Hamburg, Germany) with the EC80 of the GnRH agonist buserelin, Gq protein-coupled receptor signalling cascade is activated resulting in PLC-dependent cleavage of PIP2 to Inositol-1,4,5-triphosphate (IP3) and Diacylglycerol. The second messenger IP3 is degraded intracellularly to myo-inositol. Inhibition of the final degradation step from Inositol-1-phosphate (IP1) to myo-inositol by addition of lithium chloride leads to accumulation of IP1 in the cells. In cell lysates, IP1 can be detected via an antibody-based HTRF detection technology, where IP1 can displace the FRET acceptor IP1-d2 from binding by Terbium-labelled anti-IP1 antibody as donor resulting in a signal decrease. Compounds were tested for their capability of inhibiting GnRH-R activation by buserelin. For all IP-One HTRF® assays reagents of Cisbio Bioassays (IP-One Tb Jumbo kit, #62IPAPEJ; Cisbio Bioassays, Bagnols sur Cèze Cedex, France) were used.
For the assay, frozen cell aliquots were thawed and a cell suspension (3.33×10^6 cells/mL) containing IP1-d2 (dilution 1:40) was prepared and incubated at 37° C. After 1 h 3 μl of the cell suspension were added to 50 nl of a 100-fold concentrated solution of the test compound in DMSO pre-dispensed in a well of a white low-volume 384-well microtiter plate (Greiner Bio-One, Frickenhausen, Germany). […] Plates were incubated for 1 h at 37° C. and 5% carbon dioxide before the cells were lysed by adding 3 μl Terbium-labelled anti-IP1 antibody (1:40) diluted in Conjugate & Lysis buffer as supplied with the kit. After an incubation for 1 h at 22° C. to enable complete cell lysis and antibody binding to free IP1 or IP1-d2, plates were measured in an HTRF reader, e.g. a RUBYstar, PHERAstar (both BMG Labtechnologies, Offenburg, Germany) or a Viewlux (PerkinElmer LAS, Rodgau-Jügesheim, Germany).
From the fluorescence emissions at 665 nm (FRET) and at 620 nm (background signal of Terbium-antibody), the ratio (emission at 665 nm divided by emission at 620 nm) was calculated and the data were normalized (reaction without test compound=0% inhibition; all other assay components except agonist=100% inhibition). On the same microtiter plate, compounds were tested at 10 different concentrations in the range of 20 μM to 1 nM (20 μM, 6.7 μM, 2.2 μM, 0.74 μM, 0.25 μM, 82 nM, 27 nM, 9.2 nM, 3.1 nM and 1 nM; dilution series prepared before the assay at the level of the 100-fold conc. stock solutions by serial 1:3 dilutions in 100% DMSO) in duplicate values for each concentration. By using an in-house software, the IC50 values were calculated by a 4 parameter fit.
Within the meaning of the present invention the antagonist activity is reflected by the ability of a compound of the invention to antagonize human GnRH receptor stimulation in IP-One HTRF® assay at least three times the standard deviation over the background level.

SMILES | IC50 [nM]
N#Cc1ccc(S(=O)(=O)N2c3ccc(C(=O)NCc4ncc(C(F)(F)F)cc4F)cc3C3(CCS(=O)(=O)CC3)C2C2CC2)cc1 (racemic) [Example 7, 1-[(4-cyanophenyl)sulfonyl]-2-cyclopropyl-N-{[3-fluoro-5-(trifluoromethyl)pyridin-2-yl]methyl}-1,2,2′,3′,5′,6′-hexahydrospiro[indole-3,4′-thiopyran]-5-carboxamide 1′,1′-dioxide] | 69
N#Cc1cccc(S(=O)(=O)N2c3ccc(C(=O)NCc4ncc(C(F)(F)F)cc4F)cc3C3(CCS(=O)(=O)CC3)C2C2CC2)c1 (racemic) [Example 9, 1-[(3-cyanophenyl)sulfonyl]-2-cyclopropyl-N-{[3-fluoro-5-(trifluoromethyl)pyridin-2-yl]methyl}-1,2,2′,3′,5′,6′-hexahydrospiro[indole-3,4′-thiopyran]-5-carboxamide 1′,1′-dioxide] | 311
COc1cccc(S(=O)(=O)N2c3ccc(C(=O)NCc4ncc(C(F)(F)F)cc4F)cc3C3(CCS(=O)(=O)CC3)C2C2CC2)c1 (racemic) [Example 6, 2-cyclopropyl-N-{[3-fluoro-5-(trifluoromethyl)pyridin-2-yl]methyl}-1-[(3-methoxyphenyl)sulfonyl]-1,2,2′,3′,5′,6′-hexahydrospiro[indole-3,4′-thiopyran]-5-carboxamide 1′,1′-dioxide] | 231
NC(=O)c1ccc(S(=O)(=O)N2c3ccc(C(=O)NCc4ncc(C(F)(F)F)cc4Cl)cc3C3(CCS(=O)(=O)CC3)C2C2CC2)cc1 (single isomer, unassigned) [Example 17.1] | > 20000
O=C(NCc1ncc(C(F)(F)F)cc1F)c1ccc2c(c1)C1(CCS(=O)(=O)CC1)C(C1CC1)N2S(=O)(=O)c1cccc(OC(F)(F)F)c1 (racemic) [Example 11, 2-cyclopropyl-N-{[3-fluoro-5-(trifluoromethyl)pyridin-2-yl]methyl}-1-{[3-(trifluoromethoxy)phenyl]sulfonyl}-1,2,2′,3′,5′,6′-hexahydrospiro[indole-3,4′-thiopyran]-5-carboxamide 1′,1′-dioxide] | 760
Cc1cnc(CNC(=O)c2ccc3c(c2)C2(CCS(=O)(=O)CC2)C(C2CC2)N3S(=O)(=O)c2ccc(F)cc2)c(C(F)(F)F)c1 (racemic) [Example 5, 2-cyclopropyl-1-[(4-fluorophenyl)sulfonyl]-N-{[5-methyl-3-(trifluoromethyl)pyridin-2-yl]methyl}-1,2,2′,3′,5′,6′-hexahydrospiro[indole-3,4′-thiopyran]-5-carboxamide 1′,1′-dioxide] | 864
O=C(NCc1ncc(C(F)(F)F)cc1Cl)c1ccc2c(c1)C1(CCS(=O)(=O)CC1)C(C1CC1)N2S(=O)(=O)c1ccc(F)cc1 (racemic) [Example 3, N-{[3-chloro-5-(trifluoromethyl)pyridin-2-yl]methyl}-2-cyclopropyl-1-[(4-fluorophenyl)sulfonyl]-1,2,2′,3′,5′,6′-hexahydrospiro[indole-3,4′-thiopyran]-5-carboxamide 1′,1′-dioxide] | 53
O=C(NCc1ncc(C(F)(F)F)cc1F)c1ccc2c(c1)C1(CCS(=O)(=O)CC1)C(C1CC1)N2S(=O)(=O)c1ccc(OC(F)F)cc1 (racemic) [Example 15, 2-cyclopropyl-1-{[4-(difluoromethoxy)phenyl]sulfonyl}-N-{[3-fluoro-5-(trifluoromethyl)pyridin-2-yl]methyl}-1,2,2′,3′,5′,6′-hexahydrospiro[indole-3,4′-thiopyran]-5-carboxamide 1′,1′-dioxide] | 112
N#Cc1ccc(S(=O)(=O)N2c3ccc(C(=O)NCc4ncc(C(F)(F)F)cc4Cl)cc3C3(CCS(=O)(=O)CC3)[C@H]2C2CC2)cc1 (single isomer, unassigned) [Example 8.2] | 3560
O=C(NCc1ncc(C(F)(F)F)cc1F)c1ccc2c(c1)C1(CCS(=O)(=O)CC1)C(C1CC1)N2S(=O)(=O)c1ccc(Cl)cc1 (single isomer, unassigned) [Example 18.1] | 31
O=C(NCc1ncc(C(F)(F)F)cc1Cl)c1ccc2c(c1)C1(CCS(=O)(=O)CC1)C(C1CC1)N2S(=O)(=O)c1ccc(Cl)cc1 (racemic) [Example 19, 1-[(4-chlorophenyl)sulfonyl]-N-{[3-chloro-5-(trifluoromethyl)pyridin-2-yl]methyl}-2-cyclopropyl-1,2,2′,3′,5′,6′-hexahydrospiro[indole-3,4′-thiopyran]-5-carboxamide 1′,1′-dioxide] | 31
O=C(NCc1ncc(C(F)(F)F)cc1Cl)c1ccc2c(c1)C1(CC[S+]([O-])CC1)C(C1CC1)N2S(=O)(=O)c1ccc(F)cc1 (mixture of isomers) [Example 2, N-{[3-chloro-5-(trifluoromethyl)pyridin-2-yl]methyl}-2-cyclopropyl-1-[(4-fluorophenyl)sulfonyl]-1,2,2′,3′,5′,6′-hexahydrospiro[indole-3,4′-thiopyran]-5-carboxamide 1′-oxide] | 27
O=C(NCc1ncc(C(F)(F)F)cc1F)c1ccc2c(c1)C1(CCS(=O)(=O)CC1)[C@@H](C1CC1)N2S(=O)(=O)c1ccc(F)cc1 (single isomer, unassigned) [Example 1.2] | 6990
O=C(NCc1ncc(Cl)cc1C(F)(F)F)c1ccc2c(c1)C1(CCS(=O)(=O)CC1)C(C1CC1)N2S(=O)(=O)c1ccc(F)cc1 (racemic) [Example 4, N-{[5-chloro-3-(trifluoromethyl)pyridin-2-yl]methyl}-2-cyclopropyl-1-[(4-fluorophenyl)sulfonyl]-1,2,2′,3′,5′,6′-hexahydrospiro[indole-3,4′-thiopyran]-5-carboxamide 1′,1′-dioxide] | 69
O=C(NCc1ncc(C(F)(F)F)cc1F)c1ccc2c(c1)C1(CCS(=O)(=O)CC1)C(C1CC1)N2S(=O)(=O)c1ccc(Cl)cc1 (racemic) [Example 18, 1-[(4-chlorophenyl)sulfonyl]-2-cyclopropyl-N-{[3-fluoro-5-(trifluoromethyl)pyridin-2-yl]methyl}-1,2,2′,3′,5′,6′-hexahydrospiro[indole-3,4′-thiopyran]-5-carboxamide 1′,1′-dioxide] | 65
N#Cc1ccc(S(=O)(=O)N2c3ccc(C(=O)NCc4ncc(C(F)(F)F)cc4F)cc3C3(CCS(=O)(=O)CC3)C2C2CC2)cc1 (single isomer, unassigned) [Example 7.2] | 57
O=C(NCc1ncc(C(F)(F)F)cc1F)c1ccc2c(c1)C1(CCS(=O)(=O)CC1)C(C1CC1)N2S(=O)(=O)c1cccc(OC(F)F)c1 (racemic) [Example 13, 2-cyclopropyl-1-{[3-(difluoromethoxy)phenyl]sulfonyl}-N-{[3-fluoro-5-(trifluoromethyl)pyridin-2-yl]methyl}-1,2,2′,3′,5′,6′-hexahydrospiro[indole-3,4′-thiopyran]-5-carboxamide 1′,1′-dioxide] | 423
N#Cc1cccc(S(=O)(=O)N2c3ccc(C(=O)NCc4ncc(C(F)(F)F)cc4Cl)cc3C3(CCS(=O)(=O)CC3)C2C2CC2)c1 (racemic) [Example 10, N-{[3-chloro-5-(trifluoromethyl)pyridin-2-yl]methyl}-1-[(3-cyanophenyl)sulfonyl]-2-cyclopropyl-1,2,2′,3′,5′,6′-hexahydrospiro[indole-3,4′-thiopyran]-5-carboxamide 1′,1′-dioxide] | 29
